Read-outs that look alike come from different tables or passages of the source.
Experiments:
[1] = Storage stability of purified lyophilised peaks; settings: stored at −20° C., several months (approx. 6)
Experimental: The cyclase purified from A. polypoides was used for the production of the dinucleotides for structural and functional studies. In a total volume of 0.4 ml of 10 mM Tris-HCl, pH 7.0, 0.05 mg of purified cyclase were incubated with 1 mM cADPR (or NAD^+), 5 mM adenine and 2 mM MgCl2 at room temperature. cADPR or NAD^+ was added to the reaction mixture every 6 hours, while every 24 hours fresh cyclase was added and an aliquot of the incubation was deproteinised with TCA (5% final concentration) and analysed by HPLC (analytical phosphate) to monitor dinucleotide production. After 3-5 days, the resulting incubation was extracted with TCA and 250 μl aliquots were injected into an HPLC column (preparative phosphate). The P18, P24 and P31 peaks were collected, lyophilised in a RotoVapor, re-dissolved in deionised water and injected into an HPLC column (preparative formate). […] The purified peaks produced by Axinella cyclase were used in in vitro experiments on the various cell types described hereinafter, for the enzymatic production of mononucleotides and nucleosides (see below), as internal and external HPLC standards to identify the dinucleotides in cell extracts, and for detecting the absorption spectra stored in the liquid chromatograph library as standards.

[2] = system: HeLa-CD38^+ (whole cells); assay: Hydrolysis by CD38+ HeLa whole cells
Experimental: (§1) ADP-ribosyl cyclases from lower and higher Metazoa were incubated in the presence of 0.1 mM cADPR and 1 mM adenine at pH 7.4 in 10 mM Tris-HCl (A, B and C) or in PBS-glucose (D) at 22° C. (A and B) or at 37° C. (C and D) for 4 hours. Aliquots of the various incubations were deproteinised with TCA (trichloroacetic acid) and subjected to HPLC (analytical phosphate). Chromatograms representative of each incubation are shown. A. A. polypoides; B. A. californica; C. Human CD38 (recombinant); D. Human HeLa cells transfected with sense and antisense human CD38 (dashed chromatogram).
(§2) In table 1, the absolute values of the peak-forming and -hydrolysing activities are compared with the cADPR-forming and -hydrolysing activities for each enzyme. The activities are expressed as nmol/min/mg.

CD38^− cells = assay: Uptake of extracellularly added dinucleotides in CD38- cells; assay type: in vitro ADME, human; settings: 15 μM added extracellularly
[3] = system: CFC (colony forming cells); assay: CFC colony growth from cord blood mononuclear cells in semi-solid medium; assay type: cell-based, human; settings: Homo sapiens; 24 hours incubation of cord blood mononuclear cells, colonies counted after 2 weeks; read-out: IC50, inhibition of CFC colony growth
Experimental: Mononuclear cells isolated from cord blood were incubated in the presence of various concentrations of P18 (▴), P24 (▪) and the iso-adenosine units resulting from the enzymatic digestion of P18 (Δ) and P24 (□). After 24 hours, aliquots of cells (1-2×10^4) were seeded in semi-solid medium to allow for colony growth. Results are expressed as percentage of inhibition of colony growth compared with controls, represented by cells incubated with the same dilution of chromatographic buffer as present in the HPLC-purified compounds. The IC50 values were obtained from the logarithmic regression curves (R≧0.97). The results shown in this figure are the mean from at least three different experiments.
Mononuclear cells were isolated from cord blood (CB MNC) by a density gradient, washed by centrifugation and resuspended in complete medium (Mosmann, T. (1983) J. Immunol. Methods 65, 55-63). Cells (10^6/ml) were incubated for 24 hours in complete medium in the presence of different dinucleotides at concentrations comprised between 20 and 0.4 μM. Then, aliquots of cells (1-2×10^4) were seeded in semi-solid medium, supplemented with haemopoietic growth factors (Methocult, Stem Cell Technologies, Vancouver, BC), in order to allow colonies to develop. After 2 weeks in culture, the colonies which were grown were microscopically identified according to standard criteria (CFU-E, CFU-GM and CFU-GEM) and counted: each colony identifies a colony forming cell (CFC).

[4] = system: A. polypoides ADP-ribosyl cyclase; assay: Hydrolysis by purified Axinella polypoides ADP-ribosyl cyclase
Experimental: as §1, §2

[5] = biological target: T1, A. californica ADP-ribosyl cyclase (Aplysia californica, UniProt P29241); assay: Hydrolysis by Aplysia californica ADP-ribosyl cyclase; assay type: in vitro ADME; settings: P18 to adenine and ADPR
T1 construct: The cyclase purified from the mollusc Aplysia californica was purchased from Sigma; purchased Sigma; host or cells: purified from the mollusc
T1 sequence (P29241 25-282): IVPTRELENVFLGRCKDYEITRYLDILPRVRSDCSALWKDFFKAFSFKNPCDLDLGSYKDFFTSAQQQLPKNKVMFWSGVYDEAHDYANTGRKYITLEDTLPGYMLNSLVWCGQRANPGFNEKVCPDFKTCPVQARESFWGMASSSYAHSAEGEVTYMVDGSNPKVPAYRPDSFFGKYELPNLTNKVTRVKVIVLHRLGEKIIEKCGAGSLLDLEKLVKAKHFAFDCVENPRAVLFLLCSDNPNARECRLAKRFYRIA
Experimental: (A and B) or at 37° C. (C and D) for 4 hours. […] Chromatograms representative of each incubation are shown. A. A. polypoides; B. A. californica; C.
The activities are expressed as nmol/min/mg.

Recombinant CD38 = assay: Hydrolysis by recombinant CD38
Experimental: as §1, §2

SMILES: Nc1ncnc2c1ncn2[C@@H]1O[C@H](CO[P@](=O)(O)O[P@](=O)(O)OC[C@H]2O[C@@H](n3cnc4c(N)ncnc43)[C@H](O)[C@@H]2O)[C@@H](O)[C@H]1O [P31, diadenosine diphosphate, reference compound]
- degradation on storage [1]: no dinucleotide degradation was observed
- hydrolysis activity ([2]; HeLa-CD38^+ whole cells, P18 and P24 to adenine and ADPR): 0.15 nmol/min/mg
- rate of increase of intracellular concentration (uptake) (CD38^− cells): approx. 2.4 pmol/min/mg

SMILES: Nc1c2ncnc-2ncn1[C@@H]1O[C@H](CO)[C@@H](O)[C@H]1O [iso-adenosine from P18, 1-β-D-ribofuranosyladenine]
- IC50 [3]: 37 µM

SMILES: Nc1ncn([C@@H]2O[C@H](CO)[C@@H](O)[C@H]2O)c2ncnc1-2 [iso-adenosine from P24, 3-β-ribofuranosyladenine]
- IC50 [3]: 5 µM

SMILES: N=c1c2ncn3c2ncn1[C@@H]1O[C@H](COP(=O)(O)OP(=O)(O)OC[C@H]2O[C@@H]3[C@H](O)[C@@H]2O)[C@@H](O)[C@H]1O [cADPR, cyclic ADP-ribose, reference compound]
- hydrolysis activity [2]: 0.49 nmol/min/mg
- hydrolysis activity [4]: 170 nmol/min/mg
- hydrolysis activity [5]: 770 nmol/min/mg
- hydrolysis activity (Recombinant CD38): 308 nmol/min/mg

— US7868163B2, “Adenyl dinucleotides with antitumour activity and a method of preparing thereof” (Universita' Degli Studi Di Genova, priority 2005, dated 2011)
